From patent US11247965B2 (VenatoRx Pharmaceuticals, Inc., priority 2017, dated 2022) come the findings set out here.

Series [1] is described as follows: In vitro cytotoxicity, MTT cell viability assay in HepG2 cells. The class given is cell-based. The settings on record: human, Cytotoxicity CC50. The gist of the method: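 CC50 values reflect loss of HepG2 viability after a 7-day exposure at 37 °C, 5% CO2. After 3-4 h with MTT, solubilized formazan was quantified at 492 nm relative to vehicle wells.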
Background: Formazan colour is commonly taken as a measure of viable cells.

Series [2] deals with HBV replication in HepAD38 cells. Briefly: Anti-HBV activity in HepAD38 cells, extracellular HBV DNA by QPCR. The class given is cell-based, HBV (genotype D, serotype ayw). Conditions: Hepatitis B virus, HePAD38, 168 h, read-out: Anti-HBV EC50, HepAD38 cells, extracellular HBV DNA by QPCR, 7 days of incubation. In outline:
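Seven-day compound exposure (30 μM down to 10 nM, half-log steps) after tetracycline withdrawal induced HBV replication in HepAD38 cells. Extracellular viral DNA measured by QPCR (copies/mL via standard curve), normalised to DMSO wells; EC50 from 4-parameter non-linear regression.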

The structures appear in SMILES notation.

Consider `O=C(Nc1ccc(F)c(F)c1)c1ccc(F)c(C(F)(F)C(=O)NCc2cccnc2)c1` [Example 66, 3-(1,1-difluoro-2-oxo-2-((pyridin-3-ylmethyl)amino)ethyl)-N-(3,4-difluorophenyl)-4-fluorobenzamide], for which the CC50 at 7 days in series [1] is greater than 30 µM. Besides, in series [2], the concentration for a half-maximal effect (EC50) was 5 to 30 µM.

Molecule `Cc1cc(NC(=O)c2ccc(F)c(C(F)(F)C(=O)N3CCC(O)C(F)C3)c2)ccc1F` (stereo not drawn) [Example 162, 3-(1,1-difluoro-2-(3-fluoro-4-hydroxypiperidin-1-yl)-2-oxoethyl)-4-fluoro-N-(4-fluoro-3-methylphenyl)benzamide] had a CC50 at 7 days in series [1] of 5 to 30 µM. In addition, in series [2], the EC50 was less than 5 µM.

Turning to `Cc1cc(NC(=O)c2ccc(F)c(C(F)(F)C(=O)N3CC[C@H](O)C[C@H]3C)c2)ccc1F` [Example 255], the CC50 at 7 days in series [1] is 5 to 30 µM. For the same molecule, in series [2], the EC50 is less than 5 µM.

In turn, `Cc1cc(NC(=O)c2ccc(Cl)c(C(F)(F)C(=O)NC(C)C)c2)ccc1F` [Example 23, 4-chloro-3-(1,1-difluoro-2-(isopropylamino)-2-oxoethyl)-N-(4-fluoro-3-methylphenyl)benzamide] came in with a cytotoxic concentration (CC50) at 7 days in series [1] of 5 to 30 µM. Also, the EC50 in series [2] is 5 to 30 µM.

`N#Cc1cc(NC(=O)c2ccc(F)c(C(F)(F)C(=O)N3CCC(O)C(F)(F)C3)c2)ccc1F` (stereo not drawn) [Example 177, N-(3-cyano-4-fluorophenyl)-3-(2-(3,3-difluoro-4-hydroxypiperidin-1-yl)-1,1-difluoro-2-oxoethyl)-4-fluorobenzamide] came in with a CC50 at 7 days in series [1] of 5 to 30 µM. The EC50 in series [2] is less than 5 µM.

As to `O=C(Nc1ccc(F)c(F)c1)c1ccc(F)c(C(F)(F)C(=O)N2CCCCC(O)C2)c1` (stereo not drawn) [Example 25, 3-(1,1-difluoro-2-(3-hydroxyazepan-1-yl)-2-oxoethyl)-N-(3,4-difluorophenyl)-4-fluorobenzamide], the CC50 at 7 days in series [1] was in the range of 5 to 30 µM. The EC50 in series [2] is less than 5 µM.

On to `Cc1cc(NC(=O)c2cc(C(C)(O)C(=O)NC(C)(C)C)cn2C)ccc1F` (stereo not drawn) [Example 123, 4-(1-(tert-butylamino)-2-hydroxy-1-oxopropan-2-yl)-N-(4-fluoro-3-methylphenyl)-1-methyl-1H-pyrrole-2-carboxamide], for which the CC50 at 7 days in series [1] fell in the range of 5 to 30 µM. Further, the 50% effective concentration (EC50) in series [2] fell in the range of 5 to 30 µM.

In turn, `Cc1cc(NC(=O)c2ccc(C(F)(F)C(=O)N3CCC(O)CC3)n2C)ccc1F` [Example 99, 5-(1,1-difluoro-2-(4-hydroxypiperidin-1-yl)-2-oxoethyl)-N-(4-fluoro-3-methylphenyl)-1-methyl-1H-pyrrole-2-carboxamide] had a CC50 at 7 days in series [1] greater than 30 µM. Also, the EC50 in series [2] was greater than 30 µM.

Consider `O=C(Nc1ccc(F)cc1)c1ccc(Cl)c(C(F)(F)C(=O)N2CCC(O)CC2)c1` [Example 36, 4-chloro-3-(1,1-difluoro-2-(4-hydroxypiperidin-1-yl)-2-oxoethyl)-N-(4-fluorophenyl)benzamide], for which the CC50 at 7 days in series [1] is greater than 30 µM. Also, the EC50 in series [2] is less than 5 µM.

Molecule `Cc1cc(NC(=O)c2ccc(F)c(C(F)(F)C(=O)N3CCC(NS(C)(=O)=O)C(F)(F)C3)c2)ccc1F` (stereo not drawn) [Example 335, 3-(2-(3,3-difluoro-4-(methylsulfonamido)piperidin-1-yl)-1,1-difluoro-2-oxoethyl)-4-fluoro-N-(4-fluoro-3-methylphenyl)benzamide] had a CC50 at 7 days in series [1] greater than 30 µM. Further, the EC50 in series [2] is less than 5 µM.

`O=C(Nc1ccc(F)c(F)c1)c1ccc(F)c(C(O)C(=O)N2CCC(O)CC2)c1` (stereo not drawn) [Example 120, N-(3,4-difluorophenyl)-4-fluoro-3-(1-hydroxy-2-(4-hydroxypiperidin-1-yl)-2-oxoethyl)benzamide] had a CC50 at 7 days in series [1] greater than 30 µM. Besides, in series [2], the EC50 was greater than 30 µM.

With `O=C(Nc1cc(F)c(F)c(F)c1)c1ccc(Cl)c(C(F)(F)C(=O)N2C3CC[C@@H]2C[C@@H](O)C3)c1` [Example 247, 4-chloro-3-(1,1-difluoro-2-((1R,3s,5S)-3-hydroxy-8-azabicyclo[3.2.1]octan-8-yl)-2-oxoethyl)-N-(3,4,5-trifluorophenyl)benzamide], the CC50 at 7 days in series [1] lay in the range of 5 to 30 µM. The EC50 in series [2] lay within 5 to 30 µM.

As to `Cc1cc(NC(=O)c2ccc(F)c(C(F)(F)C(=O)N3CCC(O)CC3(C)C)c2)ccc1F` (stereo not drawn) [Example 71, 3-(1,1-difluoro-2-(4-hydroxy-2,2-dimethylpiperidin-1-yl)-2-oxoethyl)-4-fluoro-N-(4-fluoro-3-methylphenyl)benzamide], the CC50 at 7 days in series [1] was greater than 30 µM. Also, in series [2], the EC50 was 5 to 30 µM.

Regarding `O=C(Nc1ccc(F)c(Cl)c1)c1ccc(Cl)c(C(F)(F)C(=O)N2CCC(O)CC2)c1` [Example 35, 4-chloro-N-(3-chloro-4-fluorophenyl)-3-(1,1-difluoro-2-(4-hydroxypiperidin-1-yl)-2-oxoethyl)benzamide], the CC50 at 7 days in series [1] is 5 to 30 µM. In series [2], the EC50 is less than 5 µM.

For the molecule `O=C(Nc1ccc(F)c(F)c1)c1ccc(F)c(C(F)C(=O)N2CCC(O)CC2)c1` (stereo not drawn) [Example 32, N-(3,4-difluorophenyl)-4-fluoro-3-(1-fluoro-2-(4-hydroxypiperidin-1-yl)-2-oxoethyl)benzamide], the CC50 at 7 days in series [1] lay within 5 to 30 µM. Further, the EC50 in series [2] was less than 5 µM.

For `Cc1cc(NC(=O)c2ccc(F)c(C(F)(F)C(=O)N3CCC(N)CC3)c2)ccc1F` [Example 230, 3-(2-(4-aminopiperidin-1-yl)-1,1-difluoro-2-oxoethyl)-4-fluoro-N-(4-fluoro-3-methylphenyl)benzamide], the CC50 at 7 days in series [1] was in the range of 5 to 30 µM. In series [2], the EC50 was less than 5 µM.

For `O=C(Nc1ccc(F)c(F)c1)c1ccc(F)c(C(F)(F)C(=O)N2CC[C@H](CO)C2)c1` [Example 13, (S)-3-(1,1-difluoro-2-(3-(hydroxymethyl)pyrrolidin-1-yl)-2-oxoethyl)-N-(3,4-difluorophenyl)-4-fluorobenzamide], the CC50 at 7 days in series [1] lay in the range of 5 to 30 µM. The EC50 in series [2] lay within 5 to 30 µM.

For `Cc1cc(NC(=O)c2ccc(F)c(C(F)(F)C(=O)N3CCC(O)C(CO)C3)c2)ccc1F` (stereo not drawn) [Example 69, 3-(1,1-difluoro-2-(4-hydroxy-3-(hydroxymethyl)piperidin-1-yl)-2-oxoethyl)-4-fluoro-N-(4-fluoro-3-methylphenyl)benzamide], in series [1], the CC50 at 7 days is greater than 30 µM. Moreover, in series [2], the 50% effective concentration (EC50) is less than 5 µM.

Molecule `Cc1cc(NC(=O)c2cn(C)c(C(F)(F)C(=O)NC(C)(C)CO)c2C)ccc1F` [Example 129, 5-(1,1-difluoro-2-((1-hydroxy-2-methylpropan-2-yl)amino)-2-oxoethyl)-N-(4-fluoro-3-methylphenyl)-1,4-dimethyl-1H-pyrrole-3-carboxamide] registered a CC50 at 7 days in series [1] greater than 30 µM. Also, in series [2], the EC50 was less than 5 µM.

In series [1], `COc1ccc(CNC(=O)C(F)(F)c2cc(C(=O)Nc3ccc(F)c(F)c3)ccc2F)c(OC)c1` [Example 64, N-(3,4-difluorophenyl)-3-(2-((2,4-dimethoxybenzyl)amino)-1,1-difluoro-2-oxoethyl)-4-fluorobenzamide] displayed a CC50 at 7 days of 5 to 30 µM. Further, the EC50 in series [2] lay within 5 to 30 µM.

For the molecule `Cc1cc(NC(=O)c2ccc(F)c(C(F)(F)C(=O)N3CCC(O)(CO)CC3)c2)cc(F)c1F` [Example 248, 3-(1,1-difluoro-2-(4-hydroxy-4-(hydroxymethyl)piperidin-1-yl)-2-oxoethyl)-N-(3,4-difluoro-5-methylphenyl)-4-fluorobenzamide], the 50% cytotoxic concentration (CC50) at 7 days in series [1] lay in the range of 5 to 30 µM. Besides, the EC50 in series [2] was less than 5 µM.

For the molecule `Cc1cc(NC(=O)c2ccc(Cl)c(C(F)(F)C(=O)N3CCC(B(O)O)CC3)c2)ccc1F` [Example 148, (1-(2-(2-chloro-5-((4-fluoro-3-methylphenyl)carbamoyl)phenyl)-2,2-difluoroacetyl)piperidin-4-yl)boronic acid], the CC50 at 7 days in series [1] was greater than 30 µM. Also, the EC50 in series [2] was less than 5 µM.

For `Cc1cc(NC(=O)c2cc(C(F)(F)C(=O)NC(C)(C)C)n(C)c2)ccc1F` [Example 100, 5-(2-(tert-butylamino)-1,1-difluoro-2-oxoethyl)-N-(4-fluoro-3-methylphenyl)-1-methyl-1H-pyrrole-3-carboxamide], the CC50 at 7 days in series [1] is greater than 30 µM. Also, the EC50 in series [2] was less than 5 µM.

In the case of `O=C(Nc1ccc(F)c(F)c1)c1ccc(F)c(C(F)(F)C(=O)NC2CCOCC2)c1` [Example 5, 3-(1,1-difluoro-2-oxo-2-((tetrahydro-2H-pyran-4-yl)amino)ethyl)-N-(3,4-difluorophenyl)-4-fluorobenzamide], in series [1], the half-maximal cytotoxic concentration (CC50) at 7 days lay within 5 to 30 µM. In series [2], the concentration for a half-maximal effect (EC50) lay in the range of 5 to 30 µM.

For the molecule `Cc1cc(NC(=O)c2cc(C(F)(F)C(=O)NC(C)C)n(C)c2)ccc1F` [Example 102, 5-(1,1-difluoro-2-(isopropylamino)-2-oxoethyl)-N-(4-fluoro-3-methylphenyl)-1-methyl-1H-pyrrole-3-carboxamide], the CC50 at 7 days in series [1] was greater than 30 µM. In addition, the EC50 in series [2] is less than 5 µM.

In series [1], `Cc1cc(NC(=O)c2cc(F)cc(C(F)(F)C(=O)N3[C@@H]4CC[C@H]3C[C@H](O)C4)c2)ccc1F` [Example 219, 3-(1,1-difluoro-2-((1R,3s,5S)-3-hydroxy-8-azabicyclo[3.2.1]octan-8-yl)-2-oxoethyl)-5-fluoro-N-(4-fluoro-3-methylphenyl)benzamide] came in with a CC50 at 7 days of 5 to 30 µM. Further, the EC50 in series [2] fell in the range of 5 to 30 µM.

Molecule `Cn1ccc(C(=O)Nc2ccc(F)c(Cl)c2)c1C(F)(F)C(=O)NOC(C)(C)C` [Example 145, 2-(2-(tert-butoxyamino)-1,1-difluoro-2-oxoethyl)-N-(3-chloro-4-fluorophenyl)-1-methyl-1H-pyrrole-3-carboxamide] registered a CC50 at 7 days in series [1] greater than 30 µM. In series [2], the EC50 lay in the range of 5 to 30 µM.

By CC50 is commonly meant the concentration that lowers cell viability or growth by half. Low values mean greater toxicity to the cells, high ones lower toxicity to the cells. Broadly, the EC50 is the concentration needed to bring the measured effect to its halfway point.
